Structures can show the parent of a compound that is named as a salt. Where two headings read alike, the source gives them in different places.

The target of one assay is T1, serotonin transporter (Rattus norvegicus, UniProt P31652).
T1 construct: Cerebral cortices from male Wistar rats (150-200 g) are homogenized; from tissue; host or cells: rat cerebral cortex synaptosomes (P2 pellet)
Description: In vitro inhibition of 3H-5-hydroxytryptamine uptake in cortical synaptosomes. The conditions noted are these: 1 nM 3H-5-HT, 30 minutes at 37° C. In kind it is biochemical. The method, then:
In Vitro Inhibition of ^3H-5-Hydroxytyptamine Uptake in Cortical Synaptosomes
Serotonin transporters/uptake sites on nerve terminals presumably function to terminate neuronal signaling by removing serotonin from the synaptic cleft. The activity of the serotonin transporter integral protein can be measured in vitro by synaptosomal uptake of ^3H-5-hydroxytryptamine (5-HT, serotonin).
Preparations are performed at 0-4° C. Cerebral cortices from male Wistar rats (150-200 g) are homogenized for 5-10 seconds in 100 volumes of ice-cold 0.32 M sucrose containing 1 mM pargyline, using a motor driven teflon pestle in a glass homogenizing vessel. Monoamine oxidase activity is inhibited in the presence of pargyline.
The homogenate is subjected to centrifugation at 1000×g for 10 minutes. The resulting supernatant is then centrifuged at 27,000×g for 50 minutes and the supernatant is discarded. […]
Aliquots of 4.0 ml tissue suspension are added to 100 μl of test solution and 100 μl of ^3H-5-HT (1 nM, final concentration), mixed and incubated for 30 minutes at 37° C. Non-specific uptake is determined using Citalopram (1 μM, final concentration, available from Lundbeck, Denmark). […]
The amount of radioactivity on the filters is determined by conventional liquid scintillation counting. Specific uptake is calculated as the difference between total uptake and non-specific uptake. […]

In assay [1] the target is T2, α7-subtype of nicotinic receptors (Rattus norvegicus, UniProt Q05941).
T2 construct: Cerebral cortices from male Wistar rats (150-250 g) are homogenised; from tissue; host or cells: rat cerebral cortex membrane homogenate
T2 sequence (Q05941 23-502): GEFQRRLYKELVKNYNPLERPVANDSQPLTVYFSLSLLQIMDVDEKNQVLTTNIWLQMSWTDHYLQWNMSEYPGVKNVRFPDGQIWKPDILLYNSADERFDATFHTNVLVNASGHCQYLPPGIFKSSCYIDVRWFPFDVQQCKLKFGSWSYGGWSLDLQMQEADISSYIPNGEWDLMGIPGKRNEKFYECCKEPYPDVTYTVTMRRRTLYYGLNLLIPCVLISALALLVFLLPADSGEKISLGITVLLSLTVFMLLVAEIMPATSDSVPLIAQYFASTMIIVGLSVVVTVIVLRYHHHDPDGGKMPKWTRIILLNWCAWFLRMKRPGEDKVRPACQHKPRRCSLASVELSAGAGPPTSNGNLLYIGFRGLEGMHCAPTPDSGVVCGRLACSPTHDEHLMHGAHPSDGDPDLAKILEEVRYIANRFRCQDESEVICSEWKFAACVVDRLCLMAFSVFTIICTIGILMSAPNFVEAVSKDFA
Description: In vitro inhibition of 3H-α-bungarotoxine binding in rat brain.

T1 sequence (P31652 whole entry): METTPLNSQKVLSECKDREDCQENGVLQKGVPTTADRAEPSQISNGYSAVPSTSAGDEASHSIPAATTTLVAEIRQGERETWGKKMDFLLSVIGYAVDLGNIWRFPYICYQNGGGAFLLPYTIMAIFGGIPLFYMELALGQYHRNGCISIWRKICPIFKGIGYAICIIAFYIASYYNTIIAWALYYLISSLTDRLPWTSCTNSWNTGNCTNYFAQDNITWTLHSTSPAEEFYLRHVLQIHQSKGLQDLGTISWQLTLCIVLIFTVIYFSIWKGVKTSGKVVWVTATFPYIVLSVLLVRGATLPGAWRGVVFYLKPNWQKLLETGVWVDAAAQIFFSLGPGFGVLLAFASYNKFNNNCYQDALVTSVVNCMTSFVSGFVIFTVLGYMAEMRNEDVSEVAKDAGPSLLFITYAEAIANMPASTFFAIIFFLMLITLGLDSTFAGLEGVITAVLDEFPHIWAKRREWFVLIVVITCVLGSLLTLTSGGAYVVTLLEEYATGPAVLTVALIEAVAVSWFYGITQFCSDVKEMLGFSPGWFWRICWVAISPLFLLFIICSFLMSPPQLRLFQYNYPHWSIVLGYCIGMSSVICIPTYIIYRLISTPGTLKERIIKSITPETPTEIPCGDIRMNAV

Take `O=S1(=O)C(C2=CC3CCC(C2)N3)=Cc2ccccc21` (racemic) [Compound 1, (±)-3-(2-Benzo[b]thiophenyl-1,1-dioxide)-8-H-8-azabicyclo[3.2.1]oct-2-ene fumaric acid salt]: at serotonin transporter, the IC50 came to 0.19 µM.
With `CN1C2C=C(C3=Cc4ccccc4S3(=O)=O)CC1CC2` (racemic) [Compound 2, (±)-3-2-Benzo[b]thiophenyl-1,1-dioxide)-8-methyl-8-azabicyclo[3.2.1]oct-2-ene fumaric acid salt], the IC50 against serotonin transporter amounted to 0.66 µM; in assay [1], 0.018 µM.
Regarding `C=CCN1C2C=C(C3=Cc4ccccc4S3(=O)=O)CC1CC2` (racemic) [Compound 3, (±)-3-(2-Benzo[b]thiophenyl-1,1-dioxide)-8-allyl-8-azabicyclo[3.2.1]oct-2-ene], the half-inhibitory concentration (IC50) in assay [1] (rat cerebral cortex homogenate, 2 nM 3H-α-bungarotoxine, 2 hours at 37° C, read-out: Inhibition of 3H-α-Bungarotoxine Binding IC50) turned out to be 0.85 µM.

The values are drawn from patent US7314870B2, “Compounds, their preparation and use” (Neurosearch A/S, priority 2001, dated 2008).
